Laboratory results from US20240344034A1, “Renal Progenitor Cells” (The University of Queensland, priority 2013, published 2024).

What was measured:
Assay type in all cases: cell-based, human
hESC-derived IM cells = experiment: Differentiation of IM to ureteric epithelium and metanephric mesenchyme/nephron progenitors (IF, PCR); settings: for production of mesenchyme (HOXD11, SIX2, SIX1, WT1, EYA1 expression): CHIR99021 at 1 μM through Stage 2 and 3 and RA antagonist added
Method: (§1) HES3 (MIXL1^GFP/wt) cells were routinely cultured on irradiated MEF feeder cells in F12/DMEM (Life Technologies) supplemented with 20% KnockOut serum replacement (Life Technologies), 100 μM MEM NEAA (Life Technologies), 110 μM 2-mercaptoethanol (Life Technologies), 1×penicillin/streptomycin (Life Technologies), 1× Glutamax (Life Technologies) and 10 ng/mL bFGF (R&D systems). The day before starting differentiation, cells were plated at 12,000-15,000 cells/cm^2 on a Matrigel coated 96-well plate. After overnight culture, cells were exposed to 30 ng/mL BMP4 (R&D systems) and 10 ng/mL Activin A (R&D systems) or 8 μM CHIR99021 in a previously established serum free media APEL for 2-3 days, then 200 ng/mL FGF9 and 1 μg/mL Heparin in APEL media for 4 days to induce IM cells. Subsequently cells were exposed to 200 ng/mL FGF9, 50 ng/mL BMP7, 0.1 μM RA and 1 μg/mL Heparin for 4-11 days in case of BMP4/Activin A induction. In case of CHIR99021 induction, cells were exposed to 200 ng/mL FGF9 and 1 μg/mL Heparin for 6 days then cultured in APEL basal media for another 6 days. Media was changed every 2 days.
Cells were fixed with 4% Paraformaldehyde in PBS for 10 min at 4° C. followed by a wash with PBS. Then cells were blocked with 1% BSA, 0.2% milk, 0.3% Triton X/PBS for 1 hr at RT and incubated with primary antibodies overnight at 4° C.
Secondary antibodies were incubated for 1 hr at RT. The following antibodies and dilutions were used: rabbit anti-PAX2 (1:200, #71-6000, Zymed Laboratories Inc.), goat anti-OSR1 (1:75, #sc-67723, Santa Cruz Biotechnology), goat anti-LHX1 (1:75, #sc-19341, Santa Cruz Biotechnology), mouse anti-TBX6 (1:200, AF4744, R&D systems), goat anti-SOX17 (1:200, #AF1924, R&D systems), rabbit anti-SIX2 (1:200, #11562-1-AP, Proteintech), mouse anti-ECAD (1:200, #610181, BD Biosciences), rabbit anti-WT1 (1:100, #sc-192, Santa Cruz Biotechnology), mouse anti-HOXD11 (1:200, #SAB1403944, Sigma-Aldrich), goat anti-GATA3 (1:200, AF2605, R&D systems), rabbit anti-JAG1 (1:200, #ab7771, Abcam), rabbit anti-CDH6 (1:100, #HPA007047, Sigma Aldrich) and goat anti-SYNPO (1:200, #sc-21537, Santa Cruz Biotechnology). Secondary antibodies were: Alexa-488-conjugated goat anti-rabbit, Alexa-594-conjugated donkey anti-rabbit, Alexa-488-conjugated donkey anti-goat and Alexa-594-conjugated goat anti-mouse (1:250, Life Technologies). Images were taken using Nikon Ti—U microscope or Zeiss LSM 510 Meta UV confocal microscope. […]
(§2) Total RNA was extracted from cells using RNeasy micro kit (QIAGEN) and cDNA was synthesized from >100 ng RNA using Super Script III reverse transcriptase (Life Technologies). Quantitive RT-PCR (qRT-PCR) analyses were performed with Syber Green (Applied Biosystems) by ABI PRISM 7500 real-time PCR machine. […]

[1] = test system: reporter hESC line, MIXL1GFP/wt; experiment: Posterior primitive streak induction from MIXL1-GFP reporter hESC (FACS, qRT-PCR)
Method: as §1, with “Media was changed every 2 days.” left out
as §2

[2] = test system: hESC-induced posterior primitive streak; experiment: Intermediate mesoderm (IM) induction from hESC-induced posterior primitive streak (IF, qRT-PCR)
Method: as §1
Cells were fixed with 4% Paraformaldehyde in PBS for 10 min at 4° C. followed by a wash with PBS. […]
as §2
To quantify the proportion of differentiated cells positive for PAX2^+, LHX1^+, SOX17^+, SIX2^+ or WT1^+, cells were immunofluorescently stained with each antibody together with the nuclear stain, DAPI. The ratio of differentiated cells to total cells was manually counted using Image J in 1 or 2 representative fields per experiment (total 3-5 representative fields from 3 independent experiments, 1-1.5×10^3 cells in total), using an Olympus BX-51 microscope, 10× objective.

Molecule: Cc1ccc(C2=CCC(C)(C)c3ccc(C#Cc4ccc(C(=O)O)cc4)cc32)cc1 [AGN193109]
- production of mesenchyme (HOXD11, SIX2, SIX1, WT1, EYA1 expression) (hESC-derived IM cells): improved

Molecule: Cc1c[nH]c(-c2cnc(NCCNc3ccc(C#N)cn3)nc2-c2ccc(Cl)cc2Cl)n1 [CHIR99021]
- production of mesenchyme (HOXD11, SIX2, SIX1, WT1, EYA1 expression) (hESC-derived IM cells): improved
- Stage 1 concentration giving optimal ratio of epithelium to nephron progenitors (hESC-derived IM cells; first 2 days in culture, cultured out to day 18, 6 μM better than 8 μM): 6 µM
- concentration optimal for posterior primitive streak ([1]; comparative expression of MIXL1, T, SOX17, 5, 7, 9 μM tested): > 7 µM
- cells became GFP+ (MIXL1-GFP positive posterior primitive streak cells) ([1]; high BMP4/low Activin A (30/10 ng/mL) or high CHIR99021, 3 days culture, FACS): approximately 90%

Molecule: CCN(CC)CCCCNc1ncc2cc(-c3cc(OC)cc(OC)c3)c(NC(=O)NC(C)(C)C)nc2n1 [PD173074]
- PAX2 and LHX1 induction in response to FGF2 or FGF9 ([2]; day 6, FGF 200 ng/ml day 2 to 6): dramatically inhibited

B1: NOG: BMP antagonist NOG (noggin) (protein, UniProt Q13253 28-232, looked up)
Noggin: QHYLHIRPAPSDNLPLVDLIEHPDPIFDPKEKDLNETLLRSLLGGHYDPGFMATSPPEDRPGGGGGAAGGAEDLAELDQLLRQRPSGAMPSEIKGLEFSEGLAQGKKQRLSKKLRRKLQMWLWSQTFCPVLYAWNDLGSRFWPRYVKVGSCFSKRSCSVPEGMVCKPSKSVHLTVLRWRCQRRGGQRCGWIPIQYPIISECKCSC
- FOXF1 (LPM marker) expression ([2]; NOG together with FGF9 from day 2 to 6, qRT-PCR day 6): effectively suppressed

B2: FGF8: FGF family member (protein, UniProt P55075 23-233, looked up)
Fibroblast growth factor 8: QEGPGRGPALGRELASLFRAGREPQGVSQQHVREQSLVTDQLSRRLIRTYQLYSRTSGKHVQVLANKRINAMAEDGDPFAKLIVETDTFGSRVRVRGAETGLYICMNKKGKLIAKSNGKGKDCVFTEIVLENNYTALQNAKYEGWYMAFTRKGRPRKGSKTRQHQREVHFMKRLPRGHHTTEQSLRFEFLNYPPFTRSLRGSQRTWAPEPR
- coexpression of OSR1, PAX2 and LHX1 (IM induction) ([2]; 200 ng/mL FGF for 4 days): not

B3: BMP7: bone morphogenic protein 7 (protein, UniProt P18075 293-431, looked up)
Bone morphogenetic protein 7: STGSKQRSQNRSKTPKNQEALRMANVAENSSSDQRQACKKHELYVSFRDLGWQDWIIAPEGYAAYYCEGECAFPLNSYMNATNHAIVQTLVHFINPETVPKPCCAPTQLNAISVLYFDDSSNVILKKYRNMVVRACGCH
- effect on mesenchyme (hESC-derived IM cells; BMP7 together with FGF9 in Stage 3): slightly improves the mesenchyme
